Test systems include SF-268; HL-60; NCI-H226; OVCAR-3; SK-MEL-28; DU-145; A549; SW-620; 786-0; HOP-62; M14; EKVX; K562; NCI-H460; TK-10; CCRF-CEM; OVCAR-4; RXF 393; OVCAR-5; SK-MEL-2.
What all share (test): growth of human tumour cells (NCI), 48 h

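Step 1: Grow cells in 96-well plates. Step 2: Expose to compound for 48 hours at 5 concentrations. Step 3: Interpolate endpoints linearly; if unreached, use highest concentration. At the GI50, growth is halved.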 Calls of active or inactive are those of the source. Rule as the data show it: active = GI50 up to about 1.1 µM and inactive = higher.

As for `CC1=C(C(=O)OCc2ccncc2)C(C2=C(C)SCCS2)C(C(=O)OCc2ccncc2)=C(C)N1`, the GI50 was 33 µM (inactive) in the assay with SF-268; 25.4 µM (inactive) in the assay on HL-60; 18.5 µM (inactive) in the assay with NCI-H226; 19.3 µM (inactive) in the assay with OVCAR-3; 16.8 µM (inactive) in the assay on SK-MEL-28; 29.4 µM (inactive) in the assay on DU-145. The GI50 is 33.3 µM (inactive) in the assay with A549; 25.6 µM (inactive) in the assay with SW-620; 28.6 µM (inactive) with 786-0; 21.7 µM (inactive) with HOP-62; 28.7 µM (inactive) in the assay on M14; 21.2 µM (inactive) with EKVX. Besides, the GI50 was 20 µM (inactive) in the assay on K562; 23.4 µM (inactive) in the assay on NCI-H460; 40.8 µM (inactive) in the assay with TK-10; 17.7 µM (inactive) with CCRF-CEM; 38.3 µM (inactive) in the assay on OVCAR-4; 12 µM (inactive) in the assay on RXF 393. In the assay on OVCAR-5, the GI50 was 40.7 µM (inactive).

With `COC(=O)CC(SCCO)SCCO`, the GI50 with SF-268, in the assay on HL-60, in the assay on NCI-H226, in the assay on OVCAR-3, with SK-MEL-28 and in the assay on DU-145 was > 100 µM (inactive) each time. Also, the GI50 in the assay with A549, in the assay with SW-620, with 786-0, in the assay on HOP-62, in the assay on M14 and with EKVX was > 100 µM (inactive) throughout. Also, the GI50 was > 100 µM (inactive) in the assay on K562; 70.3 µM (inactive) in the assay on NCI-H460; > 100 µM (inactive) in the assay with TK-10; > 100 µM (inactive) in the assay with CCRF-CEM; > 100 µM (inactive) in the assay on OVCAR-4; > 100 µM (inactive) in the assay on RXF 393. In addition, in the assay on OVCAR-5, the GI50 is > 100 µM (inactive).

As for `CN(C)C(=O)C(NCCO)c1ccccc1` (stereo not drawn), the GI50 is > 100 µM (inactive) with SF-268; > 100 µM (inactive) in the assay with NCI-H226; 62.1 µM (inactive) in the assay with OVCAR-3; > 100 µM (inactive) in the assay on SK-MEL-28; > 100 µM (inactive) in the assay on DU-145; > 100 µM (inactive) in the assay with A549. Moreover, the GI50 in the assay with SW-620, with 786-0, in the assay on HOP-62, in the assay on M14, in the assay on EKVX and in the assay on SK-MEL-2 was > 100 µM (inactive) in each case. Also, the GI50 in the assay with NCI-H460, in the assay on TK-10, in the assay with OVCAR-4, in the assay with RXF 393 and in the assay on OVCAR-5 was > 100 µM (inactive) in each case.

On to `COc1cc([C@@H]2c3cc4c(cc3C[C@H]3COC(=O)[C@@H]32)OCO4)cc2c1OCO2` [AUSTROBAILIGNAN 1], for which the GI50 in the assay with SF-268, in the assay with NCI-H226, with OVCAR-3, in the assay with SK-MEL-28, in the assay on DU-145 and in the assay with A549 was < 0.01 µM (active) in each case. For the same compound, the GI50 in the assay with SW-620, in the assay with 786-0, in the assay on HOP-62, in the assay on M14, in the assay on EKVX and in the assay on SK-MEL-2 was < 0.01 µM (active) throughout. Also, the GI50 in the assay on NCI-H460 is < 0.01 µM (active); with TK-10, 1.99 µM (inactive); in the assay on CCRF-CEM it was 0.664 µM (active); in the assay with OVCAR-4, 11.4 µM (inactive); in the assay on RXF 393, < 0.01 µM (active); with OVCAR-5, < 0.01 µM (active).

(Values after ChEMBL document CHEMBL1201862, “PubChem BioAssay data set” (2004).)
